Literature values in PMC3657752 (Inflammatory bowel diseases, 2011).

Legend:
[1] = tested on: colorectal, colon, and breast cancer models
[2] = tested on: Experimental Autoimmune Encephalomyelitis (EAE) model; conditions: promoting permissive remyelination of spinal cord

In the case of CCN(CC)CCNc1ccc2ncn3c4ccc(O)cc4c(=O)c1c23 [Symadex], the “activity in models of colorectal, colon, and breast cancer” value [1] is given as “demonstrated activity” and the “activity in EAE model” value [2] is given as “active”.
